# Experimental data from patent US20240294499A1, “TARGETED PROTEIN DEGRADATION USING BIFUNCTIONAL COMPOUNDS THAT BIND UBIQUITIN LIGASE AND TARGET MCL-1 PROTEIN” (Captor Therapeutics S.A., priority 2021, published 2024).
# What was measured:
# [1] = target: [MCL-1]-[compound of formula (I)]-[CRBN/DDB1] complex (Homo sapiens, UniProt Q07820+Q96SW2); test: AlphaLISA dose response ternary complex formation assay; assay type: binding; conditions: read-out: AlphaLISA dose response Average pEC50 by molecule (converted)
# Sequence of [MCL-1]-[compound of formula (I)]-[CRBN/DDB1] complex (Q07820 whole entry): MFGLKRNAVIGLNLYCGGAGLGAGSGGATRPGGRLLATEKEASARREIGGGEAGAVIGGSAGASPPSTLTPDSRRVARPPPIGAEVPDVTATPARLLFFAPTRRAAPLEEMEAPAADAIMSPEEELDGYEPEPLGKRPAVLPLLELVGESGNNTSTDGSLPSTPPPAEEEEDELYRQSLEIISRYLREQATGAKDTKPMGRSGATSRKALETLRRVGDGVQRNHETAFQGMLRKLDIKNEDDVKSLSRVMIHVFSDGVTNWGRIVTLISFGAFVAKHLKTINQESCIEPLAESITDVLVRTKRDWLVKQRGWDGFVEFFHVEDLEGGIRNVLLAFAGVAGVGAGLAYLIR
# Sequence of [MCL-1]-[compound of formula (I)]-[CRBN/DDB1] complex (Q96SW2 whole entry): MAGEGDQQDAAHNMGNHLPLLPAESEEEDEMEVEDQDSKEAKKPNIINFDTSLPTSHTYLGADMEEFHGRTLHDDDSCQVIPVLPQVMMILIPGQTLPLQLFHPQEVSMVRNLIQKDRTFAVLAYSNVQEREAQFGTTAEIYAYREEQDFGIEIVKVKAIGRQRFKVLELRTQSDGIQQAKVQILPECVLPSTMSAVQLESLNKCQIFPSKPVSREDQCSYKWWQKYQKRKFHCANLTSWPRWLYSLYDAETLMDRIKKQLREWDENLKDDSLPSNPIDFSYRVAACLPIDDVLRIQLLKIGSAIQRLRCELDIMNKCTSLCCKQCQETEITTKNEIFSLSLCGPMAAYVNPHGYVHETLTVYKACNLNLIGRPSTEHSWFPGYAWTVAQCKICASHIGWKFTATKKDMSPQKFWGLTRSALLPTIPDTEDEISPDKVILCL
# Sequence of [MCL-1]-[compound of formula (I)]-[CRBN/DDB1] complex (Q16531 whole entry partner): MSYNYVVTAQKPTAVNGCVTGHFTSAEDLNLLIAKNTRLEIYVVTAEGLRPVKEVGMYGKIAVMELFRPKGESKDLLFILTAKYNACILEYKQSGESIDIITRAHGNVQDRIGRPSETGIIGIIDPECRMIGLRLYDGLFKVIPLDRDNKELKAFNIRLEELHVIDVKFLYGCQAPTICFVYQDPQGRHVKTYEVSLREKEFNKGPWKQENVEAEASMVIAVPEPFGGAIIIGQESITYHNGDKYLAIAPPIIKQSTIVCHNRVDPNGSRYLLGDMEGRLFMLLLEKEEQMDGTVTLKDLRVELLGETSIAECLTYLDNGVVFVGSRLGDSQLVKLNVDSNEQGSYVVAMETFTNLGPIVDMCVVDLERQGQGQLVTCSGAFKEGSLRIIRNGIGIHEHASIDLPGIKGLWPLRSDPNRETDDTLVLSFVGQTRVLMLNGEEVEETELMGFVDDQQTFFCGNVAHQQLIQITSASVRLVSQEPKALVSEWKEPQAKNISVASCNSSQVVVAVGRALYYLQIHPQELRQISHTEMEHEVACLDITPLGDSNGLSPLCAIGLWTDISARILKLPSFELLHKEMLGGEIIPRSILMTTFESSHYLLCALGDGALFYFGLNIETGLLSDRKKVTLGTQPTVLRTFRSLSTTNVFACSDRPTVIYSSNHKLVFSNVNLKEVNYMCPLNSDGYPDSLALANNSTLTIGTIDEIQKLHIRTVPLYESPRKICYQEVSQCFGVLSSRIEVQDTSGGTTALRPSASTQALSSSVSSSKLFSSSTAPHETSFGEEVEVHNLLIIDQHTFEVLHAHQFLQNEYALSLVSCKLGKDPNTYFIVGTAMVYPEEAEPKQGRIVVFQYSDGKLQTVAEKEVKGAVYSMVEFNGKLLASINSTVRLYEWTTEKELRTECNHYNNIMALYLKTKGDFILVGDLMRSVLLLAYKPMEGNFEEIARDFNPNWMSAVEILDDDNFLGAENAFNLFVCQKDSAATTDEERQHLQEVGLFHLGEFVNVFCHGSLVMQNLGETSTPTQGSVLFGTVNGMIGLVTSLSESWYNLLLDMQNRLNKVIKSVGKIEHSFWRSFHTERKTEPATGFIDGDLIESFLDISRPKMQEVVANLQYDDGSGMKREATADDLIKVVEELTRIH
# Procedure: The effect of the bifunctional compounds of the invention on the formation of a ternary complex composed of [MCL-1]-[compound of formula (I)]-[CRBN/DDB1] was investigated with two methods: AlphaLISA dose response assay or HTRF ternary complex assay.
# Two types of protein solution were prepared: • 40 nM biotinylated hMCL-1, 40 μg/ml AlphaScreen Streptavidin-coated Donor Beads in PBS buffer with 0.1% Tween-20 and 1 mM DTT, • 200 nM 6×His-CRBN/Strep-DDB1, 40 μg/ml AlphaLISA Anti-6×His Acceptor beads in PBS buffer with 0.1% Tween-20 and 1 mM DTT.
# The prepared solutions were incubated at room temperature for 45 min and then the solution containing the donor beads was mixed with the solution containing the acceptor beads.
# The tested compounds were dispensed onto a white 384-well AlphaPlate 384 SW. DMSO was backfilled to all wells, resulting in a final DMSO content of 2%. Wells containing only DMSO served as background. Next, 10 μl of solution with donor and acceptor beads was added to the wells.
# The plate was sealed with transparent film and shaken using a VibroTurbulator for 60 see at room temperature, level 3. The plate was then spun down shortly (10 s, 1000 rcf, room temperature) and incubated at 25° C. for 30 min.
# The read-out was performed with PerkinElmer Enspire Multimode Plate Reader (method for AlphaLISA 384-well low volume, Filterset: λexc=680 nm, λem=615 nm).
# The results were analyzed as follows: • 1) an average of luminescence for background signal was calculated and used as a negative control; • 2) average of the maximum measured luminescence for 233 was calculated and used as an internal positive control; • 3) raw luminescence values were normalized against positive and negative controls; • 4) concentration points above the hook point were excluded; • 5) EC50 and pEC50 values were determined.
# MV-4-11 cells = test: Cell viability assay (CellTiter-Glo), MV-4-11; assay type: cell-based; conditions: Homo sapiens, MV4-11, 24 hours incubation, 1% FBS, read-out: Average pIC50 by molecule MV-4-11 (converted)
# Text: (§1) The effect of various compounds of the invention on the viability of OPM-2, MV-4-11 and ARH-77 cell lines was investigated, using the CTG protocol described below.
# (§2) OPM-2 and MV-4-11 cell lines are derived from multiple myeloma and acute myeloid leukaemia, respectively. Both cell lines are described in the literature as MCL-1 dependent lines, as opposed to lymphoblast-like ARH-77 cell line, which is described as independent of MCL-1 (Tron A E et al. Nat Commun. 2018; 9: 5341; Caenepeel S et al. Cancer Discov. 2018 December; 8(12):1582-1597).
# (§3) Cells (OPM-2, MV-4-11 or ARH-77) were seeded on […] in a growth medium with FBS reduced to 1%. Next, compound stocks were pre-diluted in DMSO and added directly to the cells growth medium (final DMSO concentration: 0.5%). Compound concentrations used in this assay: 1/3 dilutions starting at 30 uM (9 to 12 points).
# (§4) After 24 hours of incubation, cell viability was evaluated using CellTiter-Glo Luminescent Cell Viability Assay (Promega, cat #G7572). Luminescence signal was measured using a CLARIOstar Plus Multi-Mode Microplate Reader (574-590 nm).
# (§5) Results were normalized to DMSO control.
# ARH-77 cells = test: Cell viability assay (CellTiter-Glo), ARH-77; assay type: cell-based; conditions: Homo sapiens, ARH-77, 24 hours incubation, 1% FBS, read-out: Average pIC50 by molecule ARH-77 (converted)
# Text: as §1, §2, §3, §4, §5
EC50 [1],IC50 (MV-4-11 cells),Structure (SMILES),IC50 (ARH-77 cells)
< 100 nM,≤ 1000 nM,"COc1cc(OCCCc2c(C(=O)O)n(CCN3CCN(C(=O)COc4cccc5c4C(=O)N(C4CCC(=O)NC4=O)C5=O)CC3)c3c(-c4c(C)nn(C)c4C)c(Cl)ccc23)c2ccccc2c1 (stereo not drawn) [Compound 218, 6-chloro-1-(2-(4-(2-((2-(2,6-dioxopiperidin-3-yl)-1,3-dioxoisoindolin-4-yl)oxy)acetyl)piperazin-1-yl)ethyl)-3-(3-((3-methoxynaphthalen-1-yl)oxy)propyl)-7-(1,3,5-trimethyl-1H-pyrazol-4-yl)-1H-indole-2-carboxylic acid]",> 10000 nM
< 100 nM,≤ 100 nM,"Cc1nn(C)c(C)c1-c1c(Cl)ccc2c(CCCOc3cccc4cc(F)ccc34)c(C(=O)O)n(CCN3CCN(C(=O)COc4c(Cl)ccc5c4CN(C4CCC(=O)NC4=O)C5=O)CC3)c12 (stereo not drawn) [Compound 345, 6-Chloro-1-{2-[4-(2-{[5-chloro-2-(2,6-dioxopiperidin-3-yl)-1-oxo-2,3-dihydro-1H-isoindol-4-yl]oxy}acetyl)piperazin-1-yl]ethyl}-3-{3-[(6-fluoronaphthalen-1-yl)oxy]propyl}-7-(1,3,5-trimethyl-1H-pyrazol-4-yl)-1H-indole-2-carboxylic acid]",> 10000 nM
< 100 nM,≤ 31.6 nM,"Cc1nn(C)c(C)c1-c1c(Cl)ccc2c(CCCOc3cccc4cc(F)ccc34)c(C(=O)O)n(CCN3CCN(C(=O)COc4cccc5c4CN([C@H]4CCC(=O)NC4=O)C5=O)CC3)c12 (single isomer, unassigned) [Compound 296]",> 10000 nM
< 100 nM,≤ 31.6 nM,"Cc1nn(C)c(C)c1-c1c(Cl)ccc2c(CCCOc3cccc4cc(F)ccc34)c(C(=O)O)n(CCN3CCN(C(=O)[C@@H](C)Oc4cccc5c4C(=O)N(C4CCC(=O)NC4=O)C5=O)CC3)c12 (stereo partly drawn) [Compound 315, 6-Chloro-1-(2-{4-[(2R)-2-{[2-(2,6-dioxopiperidin-3-yl)-1,3-dioxo-2,3-dihydro-1H-isoindol-4-yl]oxy}propanoyl]piperazin-1-yl}ethyl)-3-{3-[(6-fluoronaphthalen-1-yl)oxy]propyl}-7-(1,3,5-trimethyl-1H-pyrazol-4-yl)-1H-indole-2-carboxylic acid]",> 3160 nM
< 100 nM,≤ 316 nM,"Cc1nn(C)c(C)c1-c1c(Cl)ccc2c(CCCOc3cccc4ccccc34)c(C(=O)O)n(CCN3CCN(C(=O)COc4cccc5c4CN(C4CCC(=O)NC4=O)C5=O)C4CC43)c12 (stereo not drawn) [Compound 222, 6-chloro-1-{2-[5-(2-{[2-(2,6-dioxopiperidin-3-yl)-1-oxo-2,3-dihydro-1H-isoindol-4-yl]oxy}acetyl)-2,5-diazabicyclo[4.1.0]heptan-2-yl]ethyl}-3-[3-(naphthalen-1-yloxy)propyl]-7-(1,3,5-trimethyl-1H-pyrazol-4-yl)-1H-indole-2-carboxylic acid]",> 10000 nM
< 10 nM,≤ 100 nM,"Cc1nn(C)c(C)c1-c1c(Cl)ccc2c(CCCOc3cccc4ccccc34)c(C(=O)O)n(CCN3CCN(C(=O)COc4cccc5c4CN(C4CCC(=O)NC4=O)C5=O)CC34CC4)c12 (stereo not drawn) [Compound 292, 6-Chloro-1-(2-(7-(2-((2-(2,6-dioxopiperidin-3-yl)-1-oxoisoindolin-4-yl)oxy)acetyl)-4,7-diazaspiro[2.5]octan-4-yl)ethyl)-3-(3-(naphthalen-1-yloxy)propyl)-7-(1,3,5-trimethyl-1H-pyrazol-4-yl)-1H-indole-2-carboxylic acid]",> 10000 nM
< 100 nM,≤ 31.6 nM,"Cc1nn(C)c(C)c1-c1c(Cl)ccc2c(CCCOc3cccc4cc(F)ccc34)c(C(=O)O)n(CCN3CCN(C(=O)[C@@H](C)Oc4cccc5c4C(=O)N([C@H]4CCC(=O)NC4=O)C5=O)CC3)c12 (single isomer, unassigned) [Compound 317]",> 3160 nM

# Second part, the compound before the results:
Structure (SMILES),EC50 [1],IC50 (MV-4-11 cells),IC50 (ARH-77 cells)
"Cc1nn(C)c(C)c1-c1c(Cl)ccc2c(CCCOc3cccc4cc(F)ccc34)c(C(=O)O)n(CCN3CCN(C(=O)Cn4c(C)nc5c(C(=O)NC6CCC(=O)NC6=O)ccc(Cl)c54)CC3)c12 (stereo not drawn) [Compound 271, 6-Chloro-1-(2-(4-(2-(7-chloro-4-((2,6-dioxopiperidin-3-yl)carbamoyl)-2-methyl-1H-benzo[d]imidazol-1-yl)acetyl)piperazin-1-yl)ethyl)-3-(3-((6-fluoronaphthalen-1-yl)oxy)propyl)-7-(1,3,5-trimethyl-1H-pyrazol-4-yl)-1H-indole-2-carboxylic acid]",< 100 nM,≤ 100 nM,> 10000 nM
"Cc1nn(C)c(C)c1-c1c(Cl)ccc2c(CCCOc3cccc4cc(F)ccc34)c(C(=O)O)n(CCN3CCN(C(=O)[C@@H](C)Oc4cccc5c4C(=O)N([C@@H]4CCC(=O)NC4=O)C5=O)CC3)c12 (single isomer, unassigned) [Compound 316]",< 1000 nM,≤ 100 nM,> 3160 nM
"Cc1nn(C)c(C)c1-c1c(Cl)ccc2c(CCCOc3cccc4cc(F)ccc34)c(C(=O)O)n(CCN3CCN(C(=O)Cn4c(C)nc5c(C(=O)NC6CCC(=O)NC6=O)cc(Br)cc54)CC3)c12 (stereo not drawn) [Compound 273, 1-{2-[4-(2-{6-Bromo-4-[(2,6-dioxopiperidin-3-yl)carbamoyl]-2-methyl-1H-1,3-benzodiazol-1-yl}acetyl)piperazin-1-yl]ethyl}-6-chloro-3-{3-[(6-fluoronaphthalen-1-yl)oxy]propyl}-7-(1,3,5-trimethyl-1H-pyrazol-4-yl)-1H-indole-2-carboxylic acid]",< 10 nM,≤ 316 nM,> 10000 nM
"Cc1nn(C)c(C)c1-c1c(Cl)ccc2c(CCCOc3cccc4cc(F)ccc34)c(C(=O)O)n(CCN3CCC(CN4CCN(c5cccc6c5C(=O)N(C5CCC(=O)NC5=O)C6=O)CC4)CC3)c12 (stereo not drawn) [Compound 332, 6-Chloro-1-(2-(4-((4-(2-(2,6-dioxopiperidin-3-yl)-1,3-dioxoisoindolin-4-yl)piperazin-1-yl)methyl)piperidin-1-yl)ethyl)-3-(3-((6-fluoronaphthalen-1-yl)oxy)propyl)-7-(1,3,5-trimethyl-1H-pyrazol-4-yl)-1H-indole-2-carboxylic acid]",< 100 nM,≤ 1000 nM,> 31600 nM
"Cc1nn(C)c(C)c1-c1c(Cl)ccc2c(CCCOc3cccc4cc(F)ccc34)c(C(=O)O)n(CCN3CCC(CN4CCN(c5cc6c(cc5F)C(=O)N(C5CCC(=O)NC5=O)C6=O)CC4)CC3)c12 (stereo not drawn) [Compound 331, 6-Chloro-1-(2-(4-((4-(2-(2,6-dioxopiperidin-3-yl)-6-fluoro-1,3-dioxoisoindolin-5-yl)piperazin-1-yl)methyl)piperidin-1-yl)ethyl)-3-(3-((6-fluoronaphthalen-1-yl)oxy)propyl)-7-(1,3,5-trimethyl-1H-pyrazol-4-yl)-1H-indole-2-carboxylic acid]",< 100 nM,≤ 316 nM,> 10000 nM
"Cc1nn(C)c(C)c1-c1c(Cl)ccc2c(CCCOc3cccc4cc(F)ccc34)c(C(=O)O)n(CCN3CCC4CN(C(=O)CNc5cccc6c5C(=O)N(C5CCC(=O)NC5=O)C6=O)CC43)c12 (stereo not drawn) [Compound 300, 6-Chloro-1-(2-(5-((2-(2,6-dioxopiperidin-3-yl)-1,3-dioxoisoindolin-4-yl)glycyl)hexahydropyrrolo[3,4-b]pyrrol-1(2H)-yl)ethyl)-3-(3-((6-fluoronaphthalen-1-yl)oxy)propyl)-7-(1,3,5-trimethyl-1H-pyrazol-4-yl)-1H-indole-2-carboxylic acid]",< 10 nM,≤ 100 nM,> 3160 nM
